Molecules are shown by their SMILES. pEC50: −log10 of the molar value.

For the assay, the target named is T1, human M4 muscarinic acetylcholine receptor (Homo sapiens, UniProt P08173).
T1 construct: expressed in transfected cells; host or cells: CHO-K1
T1 sequence (P08173 1-479): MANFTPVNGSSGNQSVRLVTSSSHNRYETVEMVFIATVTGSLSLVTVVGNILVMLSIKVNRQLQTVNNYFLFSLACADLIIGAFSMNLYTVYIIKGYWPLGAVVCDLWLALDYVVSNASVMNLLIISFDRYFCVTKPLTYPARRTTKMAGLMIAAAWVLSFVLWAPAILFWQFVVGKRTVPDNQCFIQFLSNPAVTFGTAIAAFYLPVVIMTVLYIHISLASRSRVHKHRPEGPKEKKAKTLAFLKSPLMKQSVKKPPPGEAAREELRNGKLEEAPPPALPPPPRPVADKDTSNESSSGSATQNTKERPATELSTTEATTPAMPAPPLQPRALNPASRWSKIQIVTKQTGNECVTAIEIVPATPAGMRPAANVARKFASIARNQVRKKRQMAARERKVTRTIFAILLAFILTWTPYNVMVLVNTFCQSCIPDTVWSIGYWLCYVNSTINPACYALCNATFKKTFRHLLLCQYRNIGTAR
Description: human FLIPR-based M4 PAM assay, CHO-K1 cells stably transfected with human M4 receptor and chimeric G-protein Gαqi5. It is filed as cell-based. Conditions: inflection point (IP) of dose response curve; acetylcholine added at 20% of maximum response; CHO-K1 human M4/Gαqi5, FLIPR Tetra. Put shortly:
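CHO-K1 cells were loaded with calcium dye at 37 °C for ~1 h. Fluorescence (ex 470–495/em 515–575 nm) was read for 4 min after test compound at increasing concentrations, then 3.5 min after acetylcholine at an EC20; sometimes a third addition at EC70 followed. The value is the inflection point of a 4-parameter logistic fit.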
In turn, `COc1ccc(OC2CCN(c3nc(C(=O)NC(C)(C)c4ccncc4)nc(Cl)c3C)CC2)cn1` [Example 220, 4-chloro-6-(4-((6-methoxypyridin-3-yl)oxy)piperidin-1-yl)-5-methyl-N-(2-(pyridin-4-yl)propan-2-yl)pyrimidine-2-carboxamide] showed a pEC50 of 5.85.

The molecule `COc1ccc(OC2CCN(c3nc(C)nc(N)c3C)CC2)cn1` [Example 87, 6-(4-((6-methoxypyridin-3-yl)oxy)piperidin-1-yl)-2,5-dimethylpyrimidin-4-amine] showed a pEC50 of 5.82.

Consider `Cc1nc2cc(OC3CCN(c4nc(CO)nc(Cl)c4C)CC3)ccc2s1` [Example 44, 4(4-chloro-5-methyl-6-(4-((2-methylbenzo[d]thiazol-5-yl)oxy)piperidin-1-yl)pyrimidin-2-yl)methanol], for which the pEC50 is 6.35.

In the case of `COc1ccc(OC2CCN(c3nnc(C(=O)NCc4cccc(C#N)c4)cc3C)CC2)cn1` [Example 153, N-(3-cyanobenzyl)-6-{4-[(6-methoxypyridin-3-yl)oxy]piperidin-1-yl}-5-methylpyridazine-3-carboxamide], the pEC50 was 6.58.

In the case of `COc1ccc(OC2CCN(c3nc(C(=O)NC(C)C)nc(Cl)c3C)CC2)cn1` [Example 213, 4-chloro-N-isopropyl-6-(4-((6-methoxypyridin-3-yl)oxy)piperidin-1-yl)-5-methylpyrimidine-2-carboxamide], the pEC50 is 6.14.

The molecule `COc1ccc(OC2CCN(c3nc(C)c(C(N)=O)cc3C)CC2)cn1` [Example 191, 6-{4-[(6-methoxypyridin-3-yl)oxy]piperidin-1-yl}-2,5-dimethypyridine-3-carboxamide] had a pEC50 of 5.53.

Turning to `COc1ccc(OC2CCN(c3ncnc(N4CCC(F)(F)C4)c3C)CC2)cn1` [Example 231, 4-(3,3-difluoropyrrolidin-1-yl)-6-(4-((6-methoxypyridin-3-yl)oxy)piperidin-1-yl)-5-methylpyrimidine], the pEC50 was 5.96.

Molecule `Cc1c(Cl)nc(CO)nc1N1CCC(Oc2ccc3c(c2)C(=O)CC3)CC1` [Example 26, 6-((1-(6-chloro-2-(hdyroxymethyl)-5-methylpyrimidin-4-yl)piperidin-4-yl)oxy)-2,3-dihydro-1H-inden-1-one] had a pEC50 of 7.07.

As to `COc1ccc(OC2CCN(c3nc(C(=O)NNC(C)C)nc(Cl)c3C)CC2)cn1` [Example 209, 4-chloro-N′-isopropyl-6-(4-((6-methoxypyridin-3-yl)oxy)piperidin-1-yl)-5-methylpyrimidine-2-carbohydrazide], the pEC50 was 6.27.

`COc1ccc(OC2CCN(c3nc(SC)nc(Cl)c3C)CC2)cn1` [Example 82, 4-chloro-6-(4-((6-methoxypyridin-3-yl)oxy)piperidin-1-yl)-5-methyl-2-(methylthio)pyrimidine] gave a pEC50 of 6.41.

On to `Cc1c(Cl)nc(CO)nc1N1CC[C@@H](Oc2ccc3[nH]ncc3c2)[C@@H](F)C1` [Example 90, (4-((3S,4R)-4-((1H-indazol-5-yl)oxy)-3-fluoropiperidin-1-yl)-6-chloro-5-methylpyrimidin-2-yl)methanol], for which the pEC50 was 7.70.

`COc1ccc(OC2CCN(c3nnc(C(=O)NCc4ccc5c(c4)CCO5)cc3C)CC2)cn1` [Example 176, N-(2,3-dihydro-1-benzofuran-5-ylmethyl)-6-{4-[(6-methoxypyridin-3-yl)oxy]piperidin-1-yl}-5-methylpyridazine-3-carboxamide] had a pEC50 of 6.20.

For the molecule `Cc1c(Cl)nc(CO)nc1N1CCC(Oc2ccc3[nH]ccc3c2)CC1` [Example 97, (4-(4-((1H-indol-5-yl)oxy)piperidin-1-yl)-6-chloro-5-methylpyrimidin-2-yl)methanol], the pEC50 is 7.17.

On to `COc1ccc(OC2CCN(c3ncc(C#N)c(Cl)c3C)CC2)cn1` [Example 34, 4-chloro-5-(4-((6-methoxypyridin-3-yl)oxy)piperidin-1-yl)-5-methylnicotinonitrile], for which the pEC50 was 6.66.

`COc1ccc(OC2CCN(c3nnc(C)c(C)c3C#N)CC2)cn1` [Example 86, 3-(4-((6-methoxypyridin-3-yl)oxy)piperidin-1-yl)-5,6-dimethylpyridazine-4-carbonitrile] showed a pEC50 of 5.93.

`COc1ccc(OC2CCN(c3nnc(C(=O)NC4Cc5ccccc5C4)cc3C)CC2)cn1` [Example 177, N-(2,3-dihydro-1H-inden-2-yl)-6-{4-[(6-methoxypyridin-3-yl)oxy]piperidin-1-yl}-5-methylpyridazine-3-carboxamide] showed a pEC50 of 6.16.

Molecule `COc1ccc(OC2CCN(c3nc(C(=O)NC4CCc5ncccc5C4)nc(Cl)c3C)CC2)cn1` (centres unmarked) [Example 218, 4-chloro-6-(4-((6-methoxypyridin-3-yl)oxy)piperidin-1-yl)-5-methyl-N-(5,6,7,8-tetrahydroquinolin-6-yl)pyrimidine-2-carboxamide] had a pEC50 of 5.98.

`Cc1cc(C(=O)NC2CCCc3ccccc32)nnc1N1CCC(Oc2cccc(C#N)c2)CC1` (centres unmarked) [Example 202, 6-[4-(3-cyanophenoxy)piperidin-1-yl]-5-methyl-N-(1,2,3,4-tetrahydronaphthalne-1-yl)pyridazine-3-carboxamide] had a negative-log EC50 (pEC50) of 6.33.

Molecule `COC(=O)c1cc(C)c(N2CCC(Oc3ccc(OC)cc3)CC2)nn1` [Example 10, methyl 6-(4-(4-methoxyphenoxy)piperidin-1-yl)-5-methylpyridazine-3-carboxylate] had a pEC50 of 7.09.

With `Cc1ncc(C)c(N2CCC(Oc3ccc4cn[nH]c4c3)CC2)n1` [Example 80, 6-((1-(2,5-dimethylpyrimidin-4-yl)piperidin-4-yl)oxy)-1H-indazole], the pEC50 is 6.59.

Turning to `COc1ccc(OC2CCN(c3nc(C)ncc3C)CC2)cn1` [Example 79, 4-(4-((6-methoxypyridin-3-yl)oxy)piperidin-1-yl)-2,5-dimethylpyrimidine], the pEC50 was 6.63.

As for `COc1ccc(OC2CCN(c3nnc(C(=O)NC4CCCc5ccccc54)cc3C)CC2)cn1` (centres unmarked) [Example 200, 6-{4-[(6-methoxypyridin-3-yl)oxy]piperidin-1-yl}-5-methyl-N-(1,2,3,4-tetrahydronaphthalen-1-yl)pyridazine-3-carboxamide], the negative-log EC50 (pEC50) was 6.66.

Molecule `COc1ccc(OC2CCN(c3ncnc(N4Cc5cccnc5C4)c3C)CC2)cn1` [Example 232, 6-(6-(4-((6-methoxypyridin-3-yl)oxy)piperidin-1-yl)-5-methylpyrimidin-4-yl)-6,7-dihydro-5H-pyrrolo[3,4-b]pyridine] had a pEC50 of 5.83.

On to `Cc1c(Cl)nc(CO)nc1N1CCC(Oc2ccc3ccn(C)c(=O)c3c2)CC1` [Example 9, 7-((1-(6-chloro-2-(hydroxymethyl)-5-methylpyrimidin-4-yl)piperidin-4-yl)oxy)-2-methylisoquinolin-1(2H)-one], for which the pEC50 was 5.60.

Regarding `Cc1c(Cl)nc(CO)nc1N1CCC(Oc2ccc3c(c2)CCCN3)CC1` [Example 93, (4-chloro-5-methyl-6-(4-((1,2,3,4-tetrahydroquinolin-6-yl)oxy)piperidin-1-yl)pyrimidin-2-yl)methanol], the pEC50 is 7.48.

In turn, `Cc1cc(C(=O)NCc2ccncc2)nnc1N1CCC(Oc2cccc(C#N)c2)CC1` [Example 106, 6-(4-(3-Cyanophenoxy)piperidin-1-yl)-5-methyl-N-(pyridin-4-ylmethyl)pyridazine-3-carboxamide] gave a negative-log EC50 (pEC50) of 7.48.

`COc1ccc(OC2CCN(c3nnc(C(=O)NCc4ccncc4C)cc3C)CC2)cn1` [Example 121, 6-{4-[(6-methoxypyridin-3-yl)oxy]piperidin-1-yl}-5-methyl-N-[(3-methylpyridin-4-yl)methyl]pyridazine-3-carboxamide] had a pEC50 of 7.00.

Take `Cc1c(-c2ccoc2)ncnc1N1CCC(Oc2cccc(C#N)c2)CC1` [Example 249, 3-((1-(6-(furan-3-yl)-5-methylpyrimidin-4-yl)piperidin-4-yl)oxy)benzonitrile]: the pEC50 is 6.03.

Consider `COc1ccc(OC2CCN(c3nc(C(=O)NCc4ccccc4Cl)nc(Cl)c3C)CC2)cn1` [Example 219, 4-chloro-N-(2-chlorobenzyl)-6-(4-((6-methoxypyridin-3-yl)oxy)piperidin-1-yl)-5-methylpyrimidine-2-carboxamide], for which the pEC50 was 5.96.

Take `COc1ccc(OC2CCN(c3nnc(C(=O)N[C@@H]4CCc5ncccc5C4)cc3C)CC2)cn1` [Example 141A, (R)-6-(4-((6-methoxypyridin-3-yl)oxy)piperidin-1-yl)-5-methyl-N-(5,6,7,8-tetrahydroquinolin-6-yl)pyridazine-3-carboxamide]: the pEC50 is 7.24.

`Cc1ccc(OC2CCN(c3nc(CO)nc(Cl)c3C)CC2)cc1Cl` [Example 3, (4-chloro-6-(4-(3-chloro-4-methylphenoxy)piperidin-1-yl)-5-methylpyrimidin-2-yl)methanol] showed a pEC50 of 6.34.

`Cc1c(Cl)nc(CO)nc1N1CCC(Oc2ccc3c(c2)C(=O)OC3)CC1` [Example 24, 6-((1-(6-chloro-2-(hydroxymethyl)-5-methylpyrimidin-4-yl)piperidin-4-yl)oxy)isobenzofuran-1(3H)-one] showed a pEC50 of 7.11.

The record behind these values is US11319298B2 (Merck Sharp & Dohme Corp., priority 2016, dated 2022).
